Values after ≈ are worked out from the molar mass of the structure shown.
What was measured:
Assay in all cases: In vitro antifungal activity, microbroth dilution MIC
Type in all cases: cell-based
[1] = tested on: Aspergillus furnigatus B. 19119; conditions: 4 to 48 hours; for Minimal inhibitory concentration (MIC): A furnigatus B. 19119, RPMI-1640, 35° C.
In short: (§1)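 Broth microdilution adapted from NCCLS M27, in RPMI-1640 with 0.165 M MOPS, pH 7.0. Yeast or mould inoculum at 2×10^3 CFU/ml was mixed 1:1 with DMSO-derived compound solutions (200 to 0.10 μg/ml before mixing) and incubated at 35 °C for 4 to 48 h. MIC was the concentration showing no growth.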

[2] = tested on: Aspergillus niger A. 16404; conditions: 4 to 48 hours; for Minimal inhibitory concentration (MIC): A. niger A. 16404, RPMI-1640, 35° C.
In short: as §1

[3] = tested on: Candida albicans A. 10231; conditions: C. albicans A. 10231, RPMI-1640, 35° C., 4 to 48 hours
In short: as §1

[4] = tested on: Candida albicans C1-2; conditions: C. albicans C1-2, RPMI-1640, 35° C., 4 to 48 hours
In short: as §1

[5] = tested on: Candida albicans IFO. 1385; conditions: 4 to 48 hours; for Minimal inhibitory concentration (MIC): C. albicans IFO. 1385, RPMI-1640, 35° C.
In short: as §1

[6] = tested on: Candida krusei K. 11655; conditions: 4 to 48 hours; for Minimal inhibitory concentration (MIC): C. krusei K. 11655, RPMI-1640, 35° C.
In short: as §1

[7] = tested on: Candida parapsitosis A. 7330; conditions: 4 to 48 hours; for Minimal inhibitory concentration (MIC): C. parapsitosis A. 7330, RPMI-1640, 35° C.
In short: as §1

[8] = tested on: Candida pseudotropicalis K. 11658; conditions: 4 to 48 hours; for Minimal inhibitory concentration (MIC): C. pseudotropicalis K. 11658, RPMI-1640, 35° C.
In short: as §1

[9] = tested on: Candida tropicalis A. 13803; conditions: 4 to 48 hours; for Minimal inhibitory concentration (MIC): C. tropicalis A. 13803, RPMI-1640, 35° C.
In short: as §1

[10] = tested on: Cryptococcus neoformans A. 34144; conditions: 4 to 48 hours; for Minimal inhibitory concentration (MIC): Cry. neoformans A. 34144, RPMI-1640, 35° C.
In short: as §1

[11] = tested on: Cryptococcus neoformans B. 42419; conditions: 4 to 48 hours; for Minimal inhibitory concentration (MIC): Cry. neoformans B. 42419, RPMI-1640, 35° C.
In short: as §1

[12] = tested on: Cryptococcus neoformans IFM. 40092; conditions: 4 to 48 hours; for Minimal inhibitory concentration (MIC): Cry. neoformans IFM. 40092, RPMI-1640, 35° C.
In short: as §1

[13] = tested on: Torulopsis glabrata B. 16205; conditions: 4 to 48 hours; for Minimal inhibitory concentration (MIC): T. glabrata B. 16205, RPMI-1640, 35° C.
In short: as §1

[14] = tested on: Trichophyton mentagrophytes A. 9129; conditions: 4 to 48 hours; for Minimal inhibitory concentration (MIC): T. mentagrophytes A. 9129, RPMI-1640, 35° C.
In short: as §1

[15] = tested on: Trichophyton mentagrophytes B. 32663; conditions: 4 to 48 hours; for Minimal inhibitory concentration (MIC): T. mentagrophytes B. 32663, RPMI-1640, 35° C.
In short: as §1

[16] = RPMI-1640, 35° C., no growth observed

| Minimal inhibitory concentration (MIC) [1] | Minimal inhibitory concentration (MIC) [2] | Minimal inhibitory concentration (MIC) [3] | Minimal inhibitory concentration (MIC) [4] | Minimal inhibitory concentration (MIC) [5] | Minimal inhibitory concentration (MIC) [6] | Minimal inhibitory concentration (MIC) [7] | Minimal inhibitory concentration (MIC) [8] | Minimal inhibitory concentration (MIC) [9] | Minimal inhibitory concentration (MIC) [10] | Minimal inhibitory concentration (MIC) [11] | Minimal inhibitory concentration (MIC) [12] | Minimal inhibitory concentration (MIC) [13] | Minimal inhibitory concentration (MIC) [14] | Minimal inhibitory concentration (MIC) [15] | Compound | further results |
| --- | --- | --- | --- | --- | --- | --- | --- | --- | --- | --- | --- | --- | --- | --- | --- | --- |
| 6.25 µg/mL (≈ 10.3 µM) | 100 µg/mL (≈ 164 µM) | >100 µg/mL | >100 µg/mL | 1.56 µg/mL (≈ 2.56 µM) | >100 µg/mL | >100 µg/mL | >100 µg/mL | >100 µg/mL | 1.56 µg/mL (≈ 2.56 µM) | 1.56 µg/mL (≈ 2.56 µM) | 0.20 µg/mL (≈ 0.328 µM) | 12.5 µg/mL (≈ 20.5 µM) | 6.25 µg/mL (≈ 10.3 µM) | 3.13 µg/mL (≈ 5.14 µM) | FC(OCC1COC(Cn2ccnc2)(c2ccc(Cl)cc2Cl)O1)=C(c1ccc(Oc2ccccc2)cc1)C(F)(F)F (stereo not drawn) [Ex. 29] | – |
| – | – | 50.0 µg/mL | 50.0 µg/mL | – | – | – | – | – | – | – | – | – | – | – | Cc1cc(C)cc(C=C(F)OCC2COC(Cn3cncn3)(c3ccc(Cl)cc3Cl)O2)c1 (mixture of isomers) [Ex. 73] | Minimal inhibitory concentration(MIC), A furnigatus B. 19119 [1, 16]: >100 µg/mL; Minimal inhibitory concentration(MIC), A. niger A. 16404 [2, 16]: >100 µg/mL; Minimal inhibitory concentration(MIC), C. albicans IFO. 1385 [5, 16]: 12.5 µg/mL; Minimal inhibitory concentration(MIC), C. krusei K. 11655 [6, 16]: 100 µg/mL; Minimal inhibitory concentration(MIC), C. parapsitosis A. 7330 [7, 16]: >100 µg/mL; Minimal inhibitory concentration(MIC), C. pseudotropicalis K. 11658 [8, 16]: 50.0 µg/mL; Minimal inhibitory concentration(MIC), C. tropicalis A. 13803 [9, 16]: >100 µg/mL; Minimal inhibitory concentration(MIC), Cry. neoformans A. 34144 [10, 16]: 12.5 µg/mL; Minimal inhibitory concentration(MIC), Cry. neoformans B. 42419 [11, 16]: 6.25 µg/mL; Minimal inhibitory concentration(MIC), Cry. neoformans IFM. 40092 [12, 16]: 1.56 µg/mL; Minimal inhibitory concentration(MIC), T. glabrata B. 16205 [13, 16]: 50.0 µg/mL; Minimal inhibitory concentration(MIC), T. mentagrophytes A. 9129 [14, 16]: 25.0 µg/mL; Minimal inhibitory concentration(MIC), T. mentagrophytes B. 32663 [15, 16]: 25.0 µg/mL |
| 12.5 µg/mL (≈ 24.6 µM) | 50.0 µg/mL (≈ 98.5 µM) | 25.0 µg/mL (≈ 49.3 µM) | 25.0 µg/mL (≈ 49.3 µM) | 1.56 µg/mL (≈ 3.07 µM) | 12.5 µg/mL (≈ 24.6 µM) | 6.25 µg/mL (≈ 12.3 µM) | 3.13 µg/mL (≈ 6.17 µM) | 50.0 µg/mL (≈ 98.5 µM) | 1.56 µg/mL (≈ 3.07 µM) | 1.56 µg/mL (≈ 3.07 µM) | 0.39 µg/mL (≈ 0.769 µM) | 12.5 µg/mL (≈ 24.6 µM) | 12.5 µg/mL (≈ 24.6 µM) | 1.56 µg/mL (≈ 3.07 µM) | CC(C)Oc1cccc(C=C(F)OCC2COC(Cn3ccnc3)(c3ccc(Cl)cc3Cl)O2)c1 (stereo not drawn) [Ex. 11] | – |
| 6.25 µg/mL (≈ 13 µM) | 6.25 µg/mL (≈ 13 µM) | 12.5 µg/mL (≈ 26.1 µM) | 25.0 µg/mL (≈ 52.2 µM) | 1.56 µg/mL (≈ 3.25 µM) | 6.25 µg/mL (≈ 13 µM) | 12.5 µg/mL (≈ 26.1 µM) | 6.25 µg/mL (≈ 13 µM) | 25.0 µg/mL (≈ 52.2 µM) | 3.13 µg/mL (≈ 6.53 µM) | 1.56 µg/mL (≈ 3.25 µM) | 0.78 µg/mL (≈ 1.63 µM) | 6.25 µg/mL (≈ 13 µM) | 3.13 µg/mL (≈ 6.53 µM) | 1.56 µg/mL (≈ 3.25 µM) | COc1ccc(C=C(F)OCC2COC(Cn3ccnc3)(c3ccc(Cl)cc3Cl)O2)cc1 (stereo not drawn) [Ex. 9] | – |

From US6376497B1, “Antifungal azole derivatives having a fluorinated vinyl group and process for preparing same” (Korea Research Institute of Chemical Technology, priority 1999, dated 2002)
